Experimental findings from patent US12606552B2, “Bifunctional compound, preparation method therefor, and use thereof” (SUZHOU KINTOR PHARMACEUTICALS, INC., priority 2020, dated 2026) are described below.

SMILES strings stand for the structures. Some results are limits rather than exact numbers.

The assay has as its target T1, AR (Homo sapiens, UniProt P10275, T878A).
T1 sequence (P10275 1-920 T878A): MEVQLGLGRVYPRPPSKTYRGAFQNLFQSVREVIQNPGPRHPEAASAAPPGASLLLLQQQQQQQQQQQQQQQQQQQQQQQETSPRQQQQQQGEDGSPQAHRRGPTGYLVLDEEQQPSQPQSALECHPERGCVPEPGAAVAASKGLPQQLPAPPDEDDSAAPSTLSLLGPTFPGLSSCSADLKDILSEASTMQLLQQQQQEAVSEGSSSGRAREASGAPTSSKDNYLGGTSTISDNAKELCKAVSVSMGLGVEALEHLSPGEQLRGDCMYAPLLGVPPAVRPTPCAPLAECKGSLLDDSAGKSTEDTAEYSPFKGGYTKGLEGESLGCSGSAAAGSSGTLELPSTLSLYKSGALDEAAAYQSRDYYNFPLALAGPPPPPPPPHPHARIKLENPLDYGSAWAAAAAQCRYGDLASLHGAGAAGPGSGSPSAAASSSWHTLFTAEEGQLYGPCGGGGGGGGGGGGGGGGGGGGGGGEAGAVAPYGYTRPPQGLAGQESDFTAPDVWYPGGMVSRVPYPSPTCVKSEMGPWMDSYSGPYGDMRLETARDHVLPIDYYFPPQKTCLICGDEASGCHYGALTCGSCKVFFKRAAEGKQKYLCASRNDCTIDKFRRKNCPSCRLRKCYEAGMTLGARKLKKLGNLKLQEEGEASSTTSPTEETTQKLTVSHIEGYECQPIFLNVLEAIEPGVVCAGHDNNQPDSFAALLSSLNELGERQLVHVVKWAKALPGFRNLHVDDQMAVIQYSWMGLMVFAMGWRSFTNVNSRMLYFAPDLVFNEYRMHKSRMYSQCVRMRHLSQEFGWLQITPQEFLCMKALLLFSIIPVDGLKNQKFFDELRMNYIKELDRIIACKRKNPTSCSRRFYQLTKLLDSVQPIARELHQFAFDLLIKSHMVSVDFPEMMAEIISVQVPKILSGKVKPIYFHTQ
As to the kind of experiment: Effects of compounds on AR expression in LNCaP cells (ELISA, DC50). The class given is cell-based. On the set-up: Measurement of the Effects of Drugs on the Expression of AR in Cells by ELISA Method; endogenous in cells; host or cells: LNCaP. Particulars: 24 hours of drug treatment, AR by ELISA. How it is done:
Activity Assay Example 1: Effects of Compounds on AR Expression in LNCaP Cells
1. Cell Line and Cell Culture
Human prostate cancer cells LNCaP (Shanghai Chinese Academy of Sciences Cell Bank). LNCaP was cultured in 1640 medium containing 10% fetal bovine serum. The cells grow in clusters, with weak adhesion to the bottom of the culture flask, slow proliferation, with a multiplication time of 72 h. The cells are closely adhered to each other and need to be digested with 0.05% trypsin containing 0.025% EDTA. The cells were passaged every 3 days. The cells were cultured at 37° C. and 5% CO2 in a humidified incubator
2. Cell plating: The supernatant was discarded, and the Lncap cells in the logarithmic growth phase were taken, washed with PBS once, and added with appropriate 0.05% trypsin digestion solution to be fully digested into single cell suspension, and centrifuged, resuspended and counted to make the number of cells about 15,000 per well, then inoculated in a 96-well plate, placed at 37° C., 5% CO2 and cultured overnight for 24 h.
3. Preparation and Addition of Compound Solutions
About 2 mg of each compound was weighed and dissolved in DMSO to make the stock solution with a concentration of 10 mmol/L. Dilution process (final concentration dilution: 2, 0.667, 0.222, 0.074, 0.0245, 0.008, 0.003, 0.001, 0.0003, 0.0001 μmol/L): 10 centrifuge tubes with a volume of 1.5 mL were taken and numbered 1, 2, 3, 4, 5, 6, 7, 8, 9, and 10, 80 μL DMSO was added to tube No. 1, and 60 μL DMSO was added to tubes No. 2 to No. 10, 20 μL of the stock solution was pipetted to tube No. 1 and mixed well; 30 μL was pipetted from tube No. 1 into tube No. 2 and mixed well. 30 μL was pipetted from tube No. 2 into tube No. 3 and mixed well, and so forth, to obtain samples No. 4-10, and to obtain working solutions of compounds of different concentrations respectively. 2 μL was pipetted from the above-mentioned tubes No. 1-10 into each corresponding sterile deep-well plates, added with 198 μL of culture medium, and mixed well. 11 ul was added to each well of the 96-well cell plate cultured overnight to obtain the corresponding desired concentrations (2, 0.667, 0.222, 0.074, 0.0245, 0.008, 0.003, 0.001, 0.0003, 0.0001 μmol/L).
4. Measurement of the Effects of Drugs on the Expression of AR in Cells by ELISA Method
After 24 hours of drug treatment, the supernatant was removed, and 200 μL of PBS was added to wash cells, and then the supernatant was removed, and 100 μL of cell lysate was added to lyse cells on ice for 20 min, then the cell lysate was centrifuged at 4000 rpm for 20 min at 4° C. and the supernatant was taken for later use. The measurement steps of the supernatant were according to the ELISA kit instructions:
4.1 The slats required for the test were taken out from the sealed bag that has been equilibrated to room temperature. Please put the unused slats and desiccant back into the aluminum foil bag and compress the self-sealing strip, seal the bag, and store at 4° C.
4.2 Standards and sample diluents were added to blank wells, and different concentrations of standards (10 ul/well) and sample diluents (90 ul/well) were added to the remaining corresponding wells, and the reaction wells were sealed with sealing tape, and refrigerated at 4° C. overnight.
4.3 Primary antibody was diluted with dilution buffer to the corresponding concentration and added to each well in 100 ul/well. The reaction wells were sealed with sealing tape and incubated at 37° C. for 60 min.
4.4 Secondary antibody was diluted with dilution buffer to the corresponding concentration and added to each well in 100 ul/well. The reaction wells were sealed with sealing tape and incubated at 37° C. for 30 min.
4.5 The reaction wells were added with 100 ul/well of substrate (TMB) and incubated at room temperature for 30 min.
4.6 The reaction wells were added with 100 ul/well of stop solution, mixed well and then the OD450 value was measured with a microplate reader. […]

On to `Cc1ncsc1-c1ccc(CNC(=O)[C@@H]2C[C@@H](O)CN2C(=O)[C@@H](NC(=O)CCCCCC#Cc2ncc(N3C(=S)N(c4ccc(C#N)c(C(F)(F)F)c4F)C(=O)C3(C)C)cc2F)C(C)(C)C)cc1` [Compound A125], for which the DC50 was greater than 2 µM. `CC1(C)C(=O)N(c2ccc(C#N)c(C(F)(F)F)c2F)C(=S)N1c1cnc(-c2ccc(OCC(=O)NCCNc3cccc4c3C(=O)N(C3CCC(=O)NC3=O)C4=O)c(F)c2)c(F)c1` (stereo not shown) [Compound A41] returned a DC50 of 0.059 µM. In turn, `Cc1ncsc1-c1ccc(CNC(=O)[C@@H]2C[C@@H](O)CN2C(=O)[C@@H](NC(=O)CCCCCNC(=O)c2ccc(-c3ccc(N4C(=S)N(c5ccc(C#N)c(C(F)(F)F)c5F)C(=O)C4(C)C)cn3)cc2)C(C)(C)C)cc1` [Compound A53] registered a DC50 of 0.149 µM. The molecule `CC(C)(C)[C@H](NC(=O)COCCOc1ccc(-c2ncc(N3C(=S)N(c4ccc(C#N)c(C(F)(F)F)c4F)C(=O)C3(C)C)cc2F)cc1F)C(=O)N1C[C@H](O)C[C@H]1C(=O)NCc1ccc(C(N)=O)cc1` [Compound A129] displayed a DC50 of 0.0679 µM. The result for `CC1(C)C(=O)N(c2ccc(C#N)c(C(F)(F)F)c2F)C(=S)N1c1cnc(-c2ccc(OC3CCN(C(=O)COc4ccc5c(c4)C(=O)N(C4CCC(=O)NC4=O)C5=O)CC3)cc2C(F)(F)F)c(F)c1` (stereo not shown) [Compound A180] reads 0.84 µM. Take `Cc1cc(C(C(=O)N2C[C@H](O)C[C@H]2C(=O)N[C@@H](CC(=O)NCCCCCCOc2ccc(-c3ncc(N4C(=S)N(c5ccc(C#N)c(C(F)(F)F)c5F)C(=O)C4(C)C)cc3F)cc2F)c2ccc(-c3scnc3C)cc2)C(C)C)on1` (stereo partly shown) [Compound A177]: the DC50 was determined as 0.253 µM. `Cc1cc(C(C(=O)N2C[C@H](O)C[C@H]2C(=O)N[C@@H](CC(=O)N2CCC(Oc3ccc(-c4ncc(N5C(=S)N(c6ccc(C#N)c(C(F)(F)F)c6F)C(=O)C5(C)C)cc4F)c(C(F)(F)F)c3)CC2)c2ccc(-c3scnc3C)cc2)C(C)C)on1` (stereo partly shown) [Compound A183]: the DC50 amounted to 0.151 µM. With `Cc1ncsc1-c1ccc(CNC(=O)[C@@H]2C[C@@H](O)CN2C(=O)[C@@H](NC(=O)COCCOc2ncc(N3C(=S)N(c4ccc(C#N)c(C(F)(F)F)c4F)C(=O)C3(C)C)cc2C(F)(F)F)C(C)(C)C)cc1` [Compound A269], the DC50 came out at 0.766 µM. As to `CC1(C)C(=O)N(c2ccc(C#N)c(C(F)(F)F)c2F)C(=S)N1c1ccc(C2CC2C(=O)NCCNC(=O)COc2cccc3c2C(=O)N(C2CCC(=O)NC2=O)C3=O)nc1` (stereo not shown) [Compound A24], the DC50 was greater than 2 µM. In turn, `Cc1ncsc1-c1c[nH]c([C@@H]2C[C@@H](O)CN2C(=O)[C@@H](NC(=O)COCCCCOc2ccc(-c3ncc(N4C(=S)N(c5ccc(C#N)c(C(F)(F)F)c5F)C(=O)C4(C)C)cc3F)cc2F)C(C)(C)C)n1` [Compound A160] showed a DC50 of 0.151 µM. The molecule `Cc1ncsc1-c1ccc(CNC(=O)[C@@H]2C[C@@H](O)CN2C(=O)[C@@H](NC(=O)CCN2CCC(Oc3ccc(-c4ccc(N5C(=S)N(c6ccc(C#N)c(C(F)(F)F)c6F)C(=O)C5(C)C)cn4)cc3)CC2)C(C)(C)C)cc1` [Compound A65] had a DC50 of 0.0324 µM. In turn, `Cc1ncsc1-c1ccc(CNC(=O)[C@@H]2C[C@@H](O)CN2C(=O)[C@@H](NC(=O)COCCC(F)COc2ccc(-c3ncc(N4C(=S)N(c5ccc(C#N)c(C(F)(F)F)c5F)C(=O)C4(C)C)cc3F)cc2F)C(C)(C)C)cc1` (stereo partly shown) [Compound A147] displayed a DC50 of 0.0849 µM. The figure for `CC(C)(C)[C@H](NC(=O)COCCCCOc1ccc(-c2ncc(N3C(=S)N(c4ccc(C#N)c(C(F)(F)F)c4F)C(=O)C3(C)C)cc2F)cc1F)C(=O)N1C[C@H](O)C[C@H]1C(=O)NCc1ccccc1` [Compound A120] is 0.216 µM; for `CC(C)(C)[C@H](NC(=O)COCCCCOc1ccc(-c2ncc(N3C(=S)N(c4ccc(C#N)c(C(F)(F)F)c4F)C(=O)C3(C)C)cc2F)c(C(F)(F)F)c1)C(=O)N1C[C@H](O)C[C@H]1C(=O)NCc1ccccc1` [Compound A132] it is 0.161 µM; for `CC(C)(C)[C@H](NC(=O)COCCCCCOc1ccc(-c2ncc(N3C(=S)N(c4ccc(C#N)c(C(F)(F)F)c4F)C(=O)C3(C)C)cc2F)cc1F)C(=O)N1C[C@H](O)C[C@H]1C(=O)NCc1ccc(C(N)=O)cc1` [Compound A117] it is 0.111 µM.

With `Cc1ncsc1-c1ccc([C@H](C)NC(=O)[C@@H]2C[C@@H](O)CN2C(=O)[C@@H](NC(=O)COCC(F)C(F)COc2c(F)cc(-c3ncc(N4C(=S)N(c5ccc(C#N)c(C(F)(F)F)c5F)C(=O)C4(C)C)cc3F)cc2F)C(C)(C)C)cc1` (stereo partly shown) [Compound A144], the DC50 was found to be 0.635 µM. As to `Cc1ncsc1-c1ccc(CNC(=O)[C@@H]2C[C@@H](O)CN2C(=O)[C@@H](NC(=O)COCC(F)(F)CCOc2ccc(-c3ccc(N4C(=S)N(c5ccc(C#N)c(C(F)(F)F)c5F)C(=O)C4(C)C)cn3)cc2)C(C)(C)C)cc1` [Compound A175], the DC50 is 0.123 µM.

`CC1(C)C(=O)N(c2ccc(C#N)c(C(F)(F)F)c2F)C(=S)N1c1ccc(-c2ccc(OCCNC(=O)COc3ccc4c(c3)C(=O)N(C3CCC(=O)NC3=O)C4=O)cc2)nc1` (stereo not shown) [Compound A38] registered a DC50 of 0.0586 µM. For `CC(C)(C)[C@H](NC(=O)COCCCCCOc1ccc(-c2ncc(N3C(=S)N(c4ccc(C#N)c(C(F)(F)F)c4F)C(=O)C3(C)C)cc2F)cc1F)C(=O)N1C[C@H](O)C[C@H]1C(=O)NCc1ccccc1` [Compound A118], the DC50 is greater than 2 µM.

`CC(C)(C)[C@H](NC(=O)COCCCCOc1ccc(-c2ncc(N3C(=S)N(c4ccc(C#N)c(C(F)(F)F)c4F)C(=O)C3(C)C)cc2F)c(C(F)(F)F)c1)C(=O)N1C[C@H](O)C[C@H]1c1nc(-c2cncnc2)c[nH]1` [Compound A227] had a DC50 of 0.0248 µM. The figure for `Cc1ncsc1-c1cn(C)c([C@@H]2C[C@@H](O)CN2C(=O)[C@@H](NC(=O)COCCCCOc2ccc(-c3ccc(N4C(=S)N(c5ccc(C#N)c(C(F)(F)F)c5F)C(=O)C4(C)C)cn3)cc2)C(C)(C)C)n1` [Compound A220] is 0.289 µM. In turn, `CC(C)(C)[C@H](NC(=O)COCCCCOc1ccc(-c2ncc(N3C(=S)N(c4ccc(C#N)c(C(F)(F)F)c4F)C(=O)C3(C)C)cc2F)c(C(F)(F)F)c1)C(=O)N1C[C@H](O)C[C@H]1c1nc(-c2cccs2)c[nH]1` [Compound A210] gave a DC50 of 0.834 µM.
